In ChEMBL document CHEMBL1201862, “PubChem BioAssay data set” (2004):
The source made the active and inactive calls.

What was measured:
[1] = molecular target: T1, Alkaline phosphatase, tissue-nonspecific isozyme (Homo sapiens, UniProt P05186)
T1 sequence (P05186 whole entry): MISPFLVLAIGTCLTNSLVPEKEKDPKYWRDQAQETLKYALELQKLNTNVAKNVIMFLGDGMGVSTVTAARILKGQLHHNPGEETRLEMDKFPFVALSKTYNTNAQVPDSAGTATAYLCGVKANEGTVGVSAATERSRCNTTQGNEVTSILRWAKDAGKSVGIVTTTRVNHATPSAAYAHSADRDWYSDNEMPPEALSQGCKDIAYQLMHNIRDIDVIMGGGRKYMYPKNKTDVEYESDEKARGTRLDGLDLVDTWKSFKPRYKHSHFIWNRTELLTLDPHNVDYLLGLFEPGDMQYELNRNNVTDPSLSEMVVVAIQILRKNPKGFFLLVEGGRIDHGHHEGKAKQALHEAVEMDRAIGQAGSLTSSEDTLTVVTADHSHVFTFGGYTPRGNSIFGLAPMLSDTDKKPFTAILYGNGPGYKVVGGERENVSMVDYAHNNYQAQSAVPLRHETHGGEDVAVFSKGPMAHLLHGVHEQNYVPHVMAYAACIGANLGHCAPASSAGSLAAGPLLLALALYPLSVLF

[2] = system: Streptococcus sp. 'group A'; experiment: growth inhibition of control SK(-) GAS strain, dose response, counter-screen for streptokinase expression inhibitor project, luminescence, kanamycin, BacTiterGlo, confirmation (AID 1900); type: functional, organism-based
[3] = molecular target: T2, Streptokinase A (Streptococcus pyogenes serotype M1, UniProt P10520); experiment: S. pyogenes streptokinase expression inhibitors, potency, dose response, plasminogen activation absorbance, OD405 (AID 1914); type: functional, Streptococcus pyogenes M1 GAS;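 further: secreted streptokinase activity via plasminogen activation per viability signal from cell pellet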
T2 sequence (P10520 whole entry): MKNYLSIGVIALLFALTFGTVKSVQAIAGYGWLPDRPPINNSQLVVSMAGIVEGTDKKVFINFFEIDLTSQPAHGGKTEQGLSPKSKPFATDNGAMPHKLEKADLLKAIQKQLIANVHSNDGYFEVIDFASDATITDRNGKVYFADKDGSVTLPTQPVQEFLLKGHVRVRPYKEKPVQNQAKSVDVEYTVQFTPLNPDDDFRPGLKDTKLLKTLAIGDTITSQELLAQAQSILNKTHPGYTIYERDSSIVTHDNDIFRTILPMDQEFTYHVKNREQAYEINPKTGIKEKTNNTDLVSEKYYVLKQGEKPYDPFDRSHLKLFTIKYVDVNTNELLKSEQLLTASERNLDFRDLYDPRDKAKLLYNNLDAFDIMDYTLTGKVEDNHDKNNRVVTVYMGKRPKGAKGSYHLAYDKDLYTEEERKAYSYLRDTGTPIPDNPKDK

[4] = system: Streptococcus; experiment: Group A Streptococcus viability loss, dose response, counter-screen for streptokinase expression inhibitor project, luminescence, BacTiterGlo (AID 1915); type: functional, organism-based;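 further: potency for reduction of bacterial viability or growth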
[5] = system: Streptococcus; experiment: Luminescence Microorganism-Based Dose Response Follow up to Identify Compounds Cytotoxic to Streptococcus. [Related pubchem assays: 1677 (Project Summary), 1915, 1914, 1902 (Retest at Dose), 1900 (Counter Screen), 1662 (Primary HTS)]; type: functional, organism-based
[6] = molecular target: Peroxisome proliferator-activated receptor gamma (Homo sapiens, UniProt P37231); experiment: PPARg ligand-binding domain binders, dose response, PPARg partial agonist project, biochemical, TR-FRET, LanthaScreen (AID 504446)
Peroxisome proliferator-activated receptor gamma, sequence (P37231 whole entry, the tested form may be a part): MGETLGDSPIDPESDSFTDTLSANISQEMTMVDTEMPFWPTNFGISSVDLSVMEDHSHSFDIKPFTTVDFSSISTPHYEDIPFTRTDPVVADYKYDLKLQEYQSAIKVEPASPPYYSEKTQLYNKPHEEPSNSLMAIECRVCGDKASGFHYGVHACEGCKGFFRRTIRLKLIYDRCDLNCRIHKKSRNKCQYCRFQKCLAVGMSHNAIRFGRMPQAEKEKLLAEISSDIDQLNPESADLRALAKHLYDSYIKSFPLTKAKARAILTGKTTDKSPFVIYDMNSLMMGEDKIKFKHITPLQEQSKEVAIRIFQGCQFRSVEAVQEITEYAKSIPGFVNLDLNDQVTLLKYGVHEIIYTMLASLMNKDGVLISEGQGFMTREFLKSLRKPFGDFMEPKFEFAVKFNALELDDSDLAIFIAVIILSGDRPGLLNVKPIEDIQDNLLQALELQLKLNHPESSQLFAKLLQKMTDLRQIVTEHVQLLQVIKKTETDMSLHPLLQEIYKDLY

[7] = molecular target: Cytochrome P450 2D6 (Homo sapiens, UniProt P10635); experiment: qHTS Assay for Inhibitors and Substrates of Cytochrome P450 2D6. [Related pubchem assays: 410 ]; type: ADME; conditions: read-out: Potency
Cytochrome P450 2D6, sequence (P10635 whole entry): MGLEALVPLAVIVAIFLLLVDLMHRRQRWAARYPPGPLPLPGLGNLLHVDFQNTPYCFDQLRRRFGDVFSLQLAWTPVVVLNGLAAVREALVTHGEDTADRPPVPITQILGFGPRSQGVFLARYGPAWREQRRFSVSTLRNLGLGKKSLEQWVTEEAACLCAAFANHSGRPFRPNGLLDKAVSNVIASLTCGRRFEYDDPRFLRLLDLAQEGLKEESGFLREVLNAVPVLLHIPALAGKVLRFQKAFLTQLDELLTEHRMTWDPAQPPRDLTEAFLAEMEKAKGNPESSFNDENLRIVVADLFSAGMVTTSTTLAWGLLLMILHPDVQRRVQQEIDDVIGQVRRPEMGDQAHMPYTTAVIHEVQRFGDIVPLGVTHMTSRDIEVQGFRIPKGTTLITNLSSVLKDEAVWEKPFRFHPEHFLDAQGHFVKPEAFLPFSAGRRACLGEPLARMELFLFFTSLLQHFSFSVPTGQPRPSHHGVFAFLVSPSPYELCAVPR

[8] = molecular target: Cytochrome P450 3A4 (Homo sapiens, UniProt P08684); conditions: Potency;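 further: confirmatory qHTS run detecting inhibitors and substrates of CYP3A4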
Cytochrome P450 3A4, sequence (P08684 whole entry): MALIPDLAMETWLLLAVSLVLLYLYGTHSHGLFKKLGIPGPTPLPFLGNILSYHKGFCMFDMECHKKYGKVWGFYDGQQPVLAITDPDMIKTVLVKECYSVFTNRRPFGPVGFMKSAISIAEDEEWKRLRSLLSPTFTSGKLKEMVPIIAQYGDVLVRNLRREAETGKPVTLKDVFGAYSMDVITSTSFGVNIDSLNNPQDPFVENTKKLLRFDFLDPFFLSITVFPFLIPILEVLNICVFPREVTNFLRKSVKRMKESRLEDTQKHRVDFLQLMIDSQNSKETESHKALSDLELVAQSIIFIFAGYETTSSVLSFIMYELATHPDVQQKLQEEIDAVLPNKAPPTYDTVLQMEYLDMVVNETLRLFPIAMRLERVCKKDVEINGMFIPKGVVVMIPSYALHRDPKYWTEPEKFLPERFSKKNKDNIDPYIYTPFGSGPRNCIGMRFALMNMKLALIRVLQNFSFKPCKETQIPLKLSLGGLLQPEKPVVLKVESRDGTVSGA

[9] = molecular target: Lysosomal acid glucosylceramidase (Homo sapiens, UniProt P04062); experiment: Dose response cell-based high throughput screening assay to identify enhancers of beta-glucosidase activity. [Related pubchem assays: 784 ]; type: functional
Lysosomal acid glucosylceramidase, sequence (P04062 whole entry): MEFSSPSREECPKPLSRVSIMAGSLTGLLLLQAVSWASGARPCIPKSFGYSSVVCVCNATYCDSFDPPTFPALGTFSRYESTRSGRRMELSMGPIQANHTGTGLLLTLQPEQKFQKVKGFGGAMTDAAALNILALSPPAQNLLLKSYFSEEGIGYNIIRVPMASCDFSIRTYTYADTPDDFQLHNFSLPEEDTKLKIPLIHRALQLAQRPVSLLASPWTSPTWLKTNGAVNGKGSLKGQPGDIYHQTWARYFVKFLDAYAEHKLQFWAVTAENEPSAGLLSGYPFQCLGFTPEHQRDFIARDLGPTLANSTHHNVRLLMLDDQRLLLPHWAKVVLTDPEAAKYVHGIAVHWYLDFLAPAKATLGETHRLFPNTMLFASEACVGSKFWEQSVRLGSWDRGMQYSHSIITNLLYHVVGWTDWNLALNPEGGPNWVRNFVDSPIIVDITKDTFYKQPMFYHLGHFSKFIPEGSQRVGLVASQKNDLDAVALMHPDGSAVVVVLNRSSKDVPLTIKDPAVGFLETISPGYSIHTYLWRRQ

[10] = molecular target: T3, Eukaryotic translation initiation factor 2-alpha kinase 3 (Homo sapiens, UniProt Q9NZJ5); experiment: Counterscreen assay for PERK inhibitors: Dose response cell-based high throughput screening assay to measure inhibition of PERK at 6 hours. [Related pubchem assays: 1522, 1416 ]; type: functional
T3 sequence (Q9NZJ5 whole entry): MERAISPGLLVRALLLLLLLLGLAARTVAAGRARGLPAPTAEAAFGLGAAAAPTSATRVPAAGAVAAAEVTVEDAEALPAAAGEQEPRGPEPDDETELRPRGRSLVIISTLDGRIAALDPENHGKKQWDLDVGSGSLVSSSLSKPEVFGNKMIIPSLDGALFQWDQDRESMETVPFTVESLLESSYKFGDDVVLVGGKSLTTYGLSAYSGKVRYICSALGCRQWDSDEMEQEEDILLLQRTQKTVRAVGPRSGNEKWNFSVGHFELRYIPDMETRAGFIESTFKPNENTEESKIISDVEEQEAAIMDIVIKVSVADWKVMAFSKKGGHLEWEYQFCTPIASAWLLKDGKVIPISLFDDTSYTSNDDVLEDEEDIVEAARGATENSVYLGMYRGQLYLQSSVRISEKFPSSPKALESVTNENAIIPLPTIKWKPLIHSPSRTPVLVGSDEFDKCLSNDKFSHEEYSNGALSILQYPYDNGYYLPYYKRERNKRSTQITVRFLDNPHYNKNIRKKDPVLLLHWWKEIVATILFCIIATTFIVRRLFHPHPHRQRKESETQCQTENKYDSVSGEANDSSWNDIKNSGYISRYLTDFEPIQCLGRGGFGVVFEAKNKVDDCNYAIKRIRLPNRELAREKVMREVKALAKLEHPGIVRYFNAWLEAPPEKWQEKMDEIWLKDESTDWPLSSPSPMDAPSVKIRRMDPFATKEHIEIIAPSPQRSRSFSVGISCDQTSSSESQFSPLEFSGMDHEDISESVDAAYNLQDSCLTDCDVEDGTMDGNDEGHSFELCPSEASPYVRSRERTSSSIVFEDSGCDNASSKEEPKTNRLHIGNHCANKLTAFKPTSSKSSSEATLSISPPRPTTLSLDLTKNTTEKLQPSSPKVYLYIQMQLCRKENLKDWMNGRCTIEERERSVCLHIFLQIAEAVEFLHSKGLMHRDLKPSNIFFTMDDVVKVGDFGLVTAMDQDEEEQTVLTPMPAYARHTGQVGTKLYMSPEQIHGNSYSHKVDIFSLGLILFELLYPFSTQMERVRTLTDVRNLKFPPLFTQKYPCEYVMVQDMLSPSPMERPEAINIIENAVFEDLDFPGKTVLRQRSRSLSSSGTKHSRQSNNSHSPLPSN

[11] = molecular target: T3, Eukaryotic translation initiation factor 2-alpha kinase 3; experiment: Dose response cell-based high-throughput screening assay to measure PERK inhibition. [Related pubchem assays: 1416 ]; type: functional
[12] = molecular target: T4, Oxysterols receptor LXR-beta (Homo sapiens, UniProt P55055); type: functional, cell-based;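 further: agonist activity at LXR measured by a cell-based luminescence readout across a dose range, run as a counterscreen for daf-12 agonists; HEK293 cells with Gal4-LXR fusion and GAL4-driven luciferase reporter; potency for activation of Gal4-LXR reporter so compounds are agonists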
T4 sequence (P55055 whole entry): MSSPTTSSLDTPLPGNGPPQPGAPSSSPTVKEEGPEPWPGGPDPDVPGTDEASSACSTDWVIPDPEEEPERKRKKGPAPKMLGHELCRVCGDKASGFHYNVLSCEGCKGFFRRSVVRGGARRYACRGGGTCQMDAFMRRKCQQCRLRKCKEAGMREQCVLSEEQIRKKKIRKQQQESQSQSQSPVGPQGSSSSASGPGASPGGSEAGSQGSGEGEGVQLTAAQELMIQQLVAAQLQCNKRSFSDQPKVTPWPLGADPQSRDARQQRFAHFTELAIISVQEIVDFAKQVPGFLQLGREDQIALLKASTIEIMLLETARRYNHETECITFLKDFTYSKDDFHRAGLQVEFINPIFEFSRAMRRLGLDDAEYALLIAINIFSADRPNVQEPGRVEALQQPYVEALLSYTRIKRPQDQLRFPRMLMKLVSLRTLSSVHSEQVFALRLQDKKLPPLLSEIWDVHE

[13] = molecular target: Neuropeptides B/W receptor type 1 (Homo sapiens, UniProt P48145); experiment: Fluorescence-based dose response cell-based high throughput screening assay to identify antagonists of the G-protein coupled receptor 7 (GPR7). [Related pubchem assays: 1952 (Screening assay (GPR7 antagonists).), 1880 (Summary AID.)]; type: functional
Neuropeptides B/W receptor type 1, sequence (P48145 whole entry): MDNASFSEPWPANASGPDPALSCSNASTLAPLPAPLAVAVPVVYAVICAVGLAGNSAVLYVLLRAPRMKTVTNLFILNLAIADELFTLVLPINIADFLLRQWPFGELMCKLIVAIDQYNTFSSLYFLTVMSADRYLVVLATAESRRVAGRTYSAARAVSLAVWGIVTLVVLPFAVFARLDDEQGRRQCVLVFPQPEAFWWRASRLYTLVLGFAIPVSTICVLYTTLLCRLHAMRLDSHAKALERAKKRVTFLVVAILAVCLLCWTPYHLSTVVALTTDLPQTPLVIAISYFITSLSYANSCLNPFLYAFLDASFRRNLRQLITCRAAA

[14] = molecular target: Melanin-concentrating hormone receptor 1 (Homo sapiens, UniProt Q99705); experiment: Fluorescence-based counterscreen for antagonists of the G-protein coupled receptor 7 (GPR7): cell-based high throughput dose response assay to identify antagonists of the melanin-concentrating hormone receptor 1 (MCHR1).; type: functional
Melanin-concentrating hormone receptor 1, sequence (Q99705 whole entry): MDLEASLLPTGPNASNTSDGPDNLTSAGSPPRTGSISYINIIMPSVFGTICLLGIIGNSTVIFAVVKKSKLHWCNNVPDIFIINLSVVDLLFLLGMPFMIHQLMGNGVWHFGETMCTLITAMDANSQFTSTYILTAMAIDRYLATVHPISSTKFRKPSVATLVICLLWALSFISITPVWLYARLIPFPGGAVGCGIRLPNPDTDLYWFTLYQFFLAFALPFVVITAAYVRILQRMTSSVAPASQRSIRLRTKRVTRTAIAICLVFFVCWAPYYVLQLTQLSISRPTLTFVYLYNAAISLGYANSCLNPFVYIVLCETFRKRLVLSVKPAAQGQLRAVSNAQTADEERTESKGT

[15] = M. tuberculosis growth inhibition, HTS (AID 449762); type: functional
[16] = system: HEK293; experiment: Fluorescence-based counterscreen for potentiators or agonists of NPY-Y1: cell-based high-throughput dose response assay for inhibitors of cyclic nucleotide gated ion channel (CNGC) activity. In this assay, the parental HEK293 cell line transfected with a cyclic-nucleotide gated ion channel (CNGC)-based cAMP sensor is used to measure inhibition of isoproterenol-induced CNGC …; type: functional; conditions: Homo sapiens
[17] = molecular target: T5, Neuropeptide Y receptor type 1 (Homo sapiens, UniProt P25929); experiment: Fluorescence-based dose response cell-based high-throughput screening assay for agonists of NPY-Y1. [Related pubchem assays: 1697 (Screening assay (NPY-Y1 agonists).), 1359 (Screening assay (NPY-Y2 potentiators or agonists).), 1304 (Screening assay (NPY-Y1 potentiators or agonists).), 1704 (Screening assay (CNGC inhibitors).), 1791 (Summary AID.)]; type: functional
T5 sequence (P25929 whole entry): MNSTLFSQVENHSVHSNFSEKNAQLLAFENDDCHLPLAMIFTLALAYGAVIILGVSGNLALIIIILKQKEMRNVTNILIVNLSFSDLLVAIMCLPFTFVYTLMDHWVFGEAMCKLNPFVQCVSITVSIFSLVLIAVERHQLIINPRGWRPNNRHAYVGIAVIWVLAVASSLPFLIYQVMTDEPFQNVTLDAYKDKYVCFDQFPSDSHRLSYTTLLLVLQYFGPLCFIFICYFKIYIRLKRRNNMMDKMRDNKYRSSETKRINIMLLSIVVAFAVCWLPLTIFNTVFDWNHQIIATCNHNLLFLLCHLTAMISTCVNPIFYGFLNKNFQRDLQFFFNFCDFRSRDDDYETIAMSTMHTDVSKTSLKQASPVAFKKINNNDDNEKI

[18] = molecular target: T6, Estrogen receptor (Homo sapiens, UniProt P03372);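 further: potency for inhibiting coactivator peptide recruitment to the receptor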
T6 sequence (P03372 whole entry): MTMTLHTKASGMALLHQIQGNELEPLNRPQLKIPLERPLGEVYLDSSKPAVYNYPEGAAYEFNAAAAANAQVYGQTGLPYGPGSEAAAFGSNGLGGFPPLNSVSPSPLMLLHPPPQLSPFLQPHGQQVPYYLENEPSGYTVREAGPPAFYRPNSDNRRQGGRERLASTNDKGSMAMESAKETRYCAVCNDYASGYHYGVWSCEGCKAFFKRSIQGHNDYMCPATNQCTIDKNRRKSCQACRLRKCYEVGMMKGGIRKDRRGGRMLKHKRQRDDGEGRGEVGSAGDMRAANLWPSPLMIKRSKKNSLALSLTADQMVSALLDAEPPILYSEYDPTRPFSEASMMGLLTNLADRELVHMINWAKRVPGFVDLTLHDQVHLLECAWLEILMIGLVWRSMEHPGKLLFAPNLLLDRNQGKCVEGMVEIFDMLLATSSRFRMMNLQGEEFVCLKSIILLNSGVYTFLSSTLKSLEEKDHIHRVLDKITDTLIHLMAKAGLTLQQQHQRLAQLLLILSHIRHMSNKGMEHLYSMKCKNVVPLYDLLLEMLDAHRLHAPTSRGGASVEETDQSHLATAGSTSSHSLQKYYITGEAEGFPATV

[19] = molecular target: T7, Neuropeptide Y receptor type 2 (Homo sapiens, UniProt P49146); experiment: Fluorescence-based counterscreen for agonists of NPY-Y1: cell-based high-throughput dose response assay for agonists of NPY-Y2.; type: functional
T7 sequence (P49146 whole entry): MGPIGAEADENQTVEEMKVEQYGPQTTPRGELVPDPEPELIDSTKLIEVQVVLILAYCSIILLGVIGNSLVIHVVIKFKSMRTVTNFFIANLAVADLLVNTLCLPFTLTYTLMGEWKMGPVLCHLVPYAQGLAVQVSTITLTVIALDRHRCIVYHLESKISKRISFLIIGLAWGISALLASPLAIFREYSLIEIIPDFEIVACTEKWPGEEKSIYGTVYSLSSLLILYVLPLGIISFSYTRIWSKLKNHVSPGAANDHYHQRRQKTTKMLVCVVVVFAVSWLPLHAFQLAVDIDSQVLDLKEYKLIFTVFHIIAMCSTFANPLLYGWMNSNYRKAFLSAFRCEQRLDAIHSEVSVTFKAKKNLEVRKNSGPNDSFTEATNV

[20] = molecular target: Acyl-homoserine lactone acylase PvdQ (Pseudomonas aeruginosa (strain LESB58), UniProt Q9I194); experiment: P. aeruginosa PvdQ acylase inhibitors, dose response, biochemical, fluorescence, plate reader and imaging, cherry-picks (AID 493231)
Acyl-homoserine lactone acylase PvdQ, sequence (Q9I194 24-193 limits assumed): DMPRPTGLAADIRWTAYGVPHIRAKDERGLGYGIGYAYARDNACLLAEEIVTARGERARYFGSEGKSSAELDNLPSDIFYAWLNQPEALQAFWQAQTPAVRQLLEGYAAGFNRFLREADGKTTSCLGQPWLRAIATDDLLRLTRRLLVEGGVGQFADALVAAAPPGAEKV
Acyl-homoserine lactone acylase PvdQ, sequence (Q9I194 217-762 limits assumed): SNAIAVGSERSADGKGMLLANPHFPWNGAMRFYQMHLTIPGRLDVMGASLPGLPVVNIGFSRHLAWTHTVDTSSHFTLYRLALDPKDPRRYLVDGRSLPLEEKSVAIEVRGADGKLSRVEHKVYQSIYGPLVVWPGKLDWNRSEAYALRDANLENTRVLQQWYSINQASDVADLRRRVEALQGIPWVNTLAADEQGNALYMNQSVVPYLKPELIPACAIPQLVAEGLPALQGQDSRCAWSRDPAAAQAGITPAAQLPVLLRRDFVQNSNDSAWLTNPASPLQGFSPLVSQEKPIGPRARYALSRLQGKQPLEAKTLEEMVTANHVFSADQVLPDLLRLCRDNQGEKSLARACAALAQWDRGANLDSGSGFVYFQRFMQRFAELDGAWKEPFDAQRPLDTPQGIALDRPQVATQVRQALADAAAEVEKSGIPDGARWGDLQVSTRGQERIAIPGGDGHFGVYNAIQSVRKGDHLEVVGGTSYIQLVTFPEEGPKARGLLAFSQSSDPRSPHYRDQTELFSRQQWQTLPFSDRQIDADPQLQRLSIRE

For CCCCNC(=O)CSc1nc2cc3c(cc2c(=O)n1CCC(=O)NCCc1ccc(OC)c(OC)c1)OCO3, the EC50 [1] was > 100 µM (not active).
For CCOc1ccc(Cl)cc1S(=O)(=O)n1cnc2cc(C)c(C)cc21, the EC50 [2] was 23.8 µM (active), the EC50 [3] was 7.31 µM (active) and the EC50 [4] was > 150 µM (not active). The EC50 [5] was > 500 µM (not active).
For O=C(O)CCN1C(=O)/C(=C/c2ccccc2Cl)SC1=S, the IC50 [6] was 2 µM (active).
With COc1cccc2[nH]c(-c3ccccn3)nc12 the AC50 [7] was 1.58 µM (inconclusive) and the AC50 [8] was 3.98 µM (inconclusive).
With O=S(=O)(NCc1csc(-c2cccnc2)n1)c1ccc2c(c1)OCCO2 the EC50 [9] was > 50 µM (not active).
For CCCCOC(=O)C1C2C=C[C@]3(CN(CCCOC)C(=O)[C@H]13)O2 (stereo not given in full), the EC50 [10] was > 55.7 µM (not active) and the EC50 [11] was > 55.7 µM (not active).
With CS(=O)(=O)c1ccc2nc(NC(=O)Nc3ccccc3F)sc2c1 the EC50 [12] was > 67.5 µM (inactive), the IC50 [13] was > 43.8 µM (not active) and the IC50 [14] was > 43.8 µM (not active).
For CCn1c(SCC(=O)Nc2ccc3c(c2)oc2ccccc23)nnc1-c1ccc(N)cc1, the IC50 [15] was > 100 µM (active), the IC50 [16] was 2.88 µM (active) and the EC50 [17] was 7.16 µM (active). The IC50 [18] was 11.7 µM (active) and the EC50 [19] was 7.96 µM (active).
In the case of O=[N+]([O-])c1ccc(N2CCSCC2)cc1, the AC50 [20] was > 100 µM (inactive).
